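In this assay, cells in 96-well plates receive the compound at five concentrations for 48 hours. Endpoints are linearly interpolated between the surrounding concentrations. TGI is the concentration that stops growth completely.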
Experiments:
Test in all cases: DTP human tumour cell line panel, 48 h
PC-3 prostate = test system: PC-3 prostate
UACC-62 melanoma = test system: UACC-62 melanoma
MALME-3M melanoma = test system: MALME-3M melanoma
EKVX NSCLC = test system: EKVX NSCLC
RXF 393 renal = test system: RXF 393 renal
MCF7 breast = test system: MCF7 breast
SF-268 CNS = test system: SF-268 CNS
SNB-75 CNS = test system: SNB-75 CNS
NCI-H23 lung = test system: NCI-H23 lung
SK-MEL-28 melanoma = test system: SK-MEL-28 melanoma
SK-OV-3 ovarian = test system: SK-OV-3 ovarian
NCI-H522 lung = test system: NCI-H522 lung
HT29 colon = test system: HT29 colon
HCT-116 colon = test system: HCT-116 colon
UACC-257 melanoma = test system: UACC-257 melanoma
MDA-MB-231 breast = test system: MDA-MB-231 breast
SNB-19 CNS = test system: SNB-19 CNS
HL-60(TB) leukemia = test system: HL-60(TB) leukemia
TK-10 renal = test system: TK-10 renal
KM12 colon = test system: KM12 colon
SK-MEL-5 melanoma = test system: SK-MEL-5 melanoma
UO-31 renal = test system: UO-31 renal
SF-539 CNS = test system: SF-539 CNS
A498 renal = test system: A498 renal
M14 melanoma = test system: M14 melanoma
U251 CNS = test system: U251 CNS
OVCAR-8 ovarian = test system: OVCAR-8 ovarian
A549 NSCLC = test system: A549 NSCLC
HCC-2998 colon = test system: HCC-2998 colon
MOLT-4 leukemia = test system: MOLT-4 leukemia
SR leukemia = test system: SR leukemia
OVCAR-5 ovarian = test system: OVCAR-5 ovarian
SF-295 CNS = test system: SF-295 CNS
IGROV1 ovarian = test system: IGROV1 ovarian
ACHN renal = test system: ACHN renal
T-47D breast = test system: T-47D breast
786-0 renal = test system: 786-0 renal
SN12C renal = test system: SN12C renal
SW-620 colon = test system: SW-620 colon
COLO 205 colon = test system: COLO 205 colon
HS 578T breast = test system: HS 578T breast
MDA-N = test system: MDA-N
CCRF-CEM leukemia = test system: CCRF-CEM leukemia
OVCAR-4 ovarian = test system: OVCAR-4 ovarian
CAKI-1 renal = test system: CAKI-1 renal
SK-MEL-2 melanoma = test system: SK-MEL-2 melanoma
K-562 leukemia = test system: K-562 leukemia
RPMI-8226 leukemia = test system: RPMI-8226 leukemia
HOP-62 NSCLC = test system: HOP-62 NSCLC
BT-549 breast = test system: BT-549 breast
OVCAR-3 ovarian = test system: OVCAR-3 ovarian
NCI-H226 lung = test system: NCI-H226 lung
DU-145 prostate = test system: DU-145 prostate
MDA-MB-435 = test system: MDA-MB-435
HCT-15 colon = test system: HCT-15 colon
NCI-H460 lung = test system: NCI-H460 lung
LOX IMVI melanoma = test system: LOX IMVI melanoma
HOP-92 NSCLC = test system: HOP-92 NSCLC
NCI/ADR-RES ovarian = test system: NCI/ADR-RES ovarian

Measured: TGI

CN(C)CCNC(=O)c1cc([N+](=O)[O-])cn1C
> 100 µM: PC-3 prostate | UACC-62 melanoma | MALME-3M melanoma | EKVX NSCLC | RXF 393 renal | MCF7 breast | SF-268 CNS | SNB-75 CNS | NCI-H23 lung | SK-MEL-28 melanoma | SK-OV-3 ovarian | NCI-H522 lung | HT29 colon | HCT-116 colon | UACC-257 melanoma | MDA-MB-231 breast | SNB-19 CNS | HL-60(TB) leukemia | TK-10 renal | KM12 colon | SK-MEL-5 melanoma | UO-31 renal | SF-539 CNS | A498 renal | M14 melanoma | U251 CNS | OVCAR-8 ovarian | A549 NSCLC | HCC-2998 colon | MOLT-4 leukemia | SR leukemia | OVCAR-5 ovarian | SF-295 CNS | IGROV1 ovarian | ACHN renal | T-47D breast | 786-0 renal | SN12C renal | SW-620 colon | COLO 205 colon | HS 578T breast | MDA-N | CCRF-CEM leukemia | OVCAR-4 ovarian | CAKI-1 renal | SK-MEL-2 melanoma | K-562 leukemia | RPMI-8226 leukemia | HOP-62 NSCLC | BT-549 breast | OVCAR-3 ovarian | NCI-H226 lung | DU-145 prostate | MDA-MB-435 | HCT-15 colon | NCI-H460 lung | LOX IMVI melanoma

COC(=O)CSC1CC(=O)c2c(Cl)sc(Cl)c21 (centres undefined)
> 100 µM: PC-3 prostate | UACC-62 melanoma | MALME-3M melanoma | EKVX NSCLC | RXF 393 renal | MCF7 breast | SF-268 CNS | SNB-75 CNS | NCI-H23 lung | SK-MEL-28 melanoma | SK-OV-3 ovarian | NCI-H522 lung | HT29 colon | HCT-116 colon | UACC-257 melanoma | MDA-MB-231 breast | SNB-19 CNS | TK-10 renal | KM12 colon | SK-MEL-5 melanoma | UO-31 renal | M14 melanoma | U251 CNS | OVCAR-8 ovarian | A549 NSCLC | HCC-2998 colon | MOLT-4 leukemia | SR leukemia | OVCAR-5 ovarian | SF-295 CNS | IGROV1 ovarian | ACHN renal | T-47D breast | 786-0 renal | SN12C renal | SW-620 colon | COLO 205 colon | HS 578T breast | MDA-N | CCRF-CEM leukemia | OVCAR-4 ovarian | CAKI-1 renal | SK-MEL-2 melanoma | HOP-92 NSCLC | K-562 leukemia | HOP-62 NSCLC | BT-549 breast | DU-145 prostate | MDA-MB-435 | HCT-15 colon | NCI-H460 lung | LOX IMVI melanoma

COc1ccc(OC)c(NC(=O)c2c(Cl)c(Cl)c(Cl)c(Cl)c2-c2nc3ccccc3[nH]2)c1
> 100 µM: PC-3 prostate | UACC-62 melanoma | MALME-3M melanoma | EKVX NSCLC | RXF 393 renal | MCF7 breast | NCI/ADR-RES ovarian | SF-268 CNS | SNB-75 CNS | NCI-H23 lung | SK-MEL-28 melanoma | SK-OV-3 ovarian | NCI-H522 lung | HT29 colon | HCT-116 colon | UACC-257 melanoma | SNB-19 CNS | HL-60(TB) leukemia | KM12 colon | SK-MEL-5 melanoma | UO-31 renal | SF-539 CNS | A498 renal | M14 melanoma | OVCAR-8 ovarian | A549 NSCLC | HCC-2998 colon | MOLT-4 leukemia | SR leukemia | OVCAR-5 ovarian | SF-295 CNS | IGROV1 ovarian | ACHN renal | T-47D breast | 786-0 renal | SN12C renal | SW-620 colon | COLO 205 colon | HS 578T breast | MDA-N | CCRF-CEM leukemia | OVCAR-4 ovarian | CAKI-1 renal | HOP-92 NSCLC | K-562 leukemia | RPMI-8226 leukemia | HOP-62 NSCLC | BT-549 breast | OVCAR-3 ovarian | NCI-H226 lung | DU-145 prostate | MDA-MB-435 | HCT-15 colon | NCI-H460 lung | LOX IMVI melanoma

From PubChem BioAssay (NCI)
